Test results published in patent US7507792B2, “MDA-7 proteins and methods of use thereof” (The Trustees of Columbia University In The City of New York, priority 1993, dated 2009).

Tests used:
[1] = tested on: H0-1 human melanoma cell line; experiment: 96-h growth suppression (cell number by Coulter Counter); type: cell-based; details: for Growth Suppression (reversible): H0-1 cells, degree of initial 96 hr growth suppression versus untreated control
Protocol: FIG. 1A-B Effect of continuous exposure to various growth and differentiation modulating agents on the 96-h growth of the human melanoma cell line, H0-1. Cells were seeded at 5×10^4/35-mm tissue culture plate and 24 h later the medium was changed with the indicated compounds. Cell numbers were determined by Coulter Counter after 96-h growth. Further details can be found in Materials and Methods.
The H0-1 cell line is a melanotic melanoma derived from a person and was used between passage 100 and 125 (6,8,13). H0-1 cells were kindly provided by Dr. Beppino C. Giovanella, Stehlin Foundation for Cancer Research, Houston, Tex. Cultures were grown at 37° C. in a 95% air 5% CO2-humidified incubator in Dulbecco's modified Eagle's medium (DMEM) supplemented with 10% fetal bovine serum (DMEM-10) (Hyclone, Logan, Utah). H0-1 cells were maintained in the logarithmic stage of growth by subculturing (1:5 or 1:10) prior to confluency approximately every 4 to 5 days. […] Total cell numbers were determined after days 4, 7, 14, and 21, using a ZM Coulter Counter, and viable cell numbers were determined by trypan blue dye exclusion (6). […] Increases in cell number (two or more population doublings) after removal of the inducing agent(s) was considered reversible growth suppression. […] Conditioned medium was collected from treated cultures, contaminating cells were removed by centrifugation at 1000 rpm/10 min., and conditioned medium was stored at 4° C. until assayed for gene modulatory activity. Control conditioned medium was obtained as experimental conditioned medium from cells receiving only a medium change 24 hours after plating in the absence of test compound(s) and growth for 72 hours in DMEM-10.

[2] = tested on: mda-8; experiment: mda-8 expression (Northern blotting); type: cell-based, human; details: H0-1
Protocol: The mass excision of the library was performed using ExAssist helper phage as described above. The SOLR strain of Escherichia coli and cDNA phagemids were mixed at 37° C. for 15 min and plated onto LB plates containing ampicillin and IPTG/X-gal. White colonies were chosen at random, isolated and grown in LB medium. Plasmid minireps and restriction enzyme digestions were performed to confirm the presence of inserts. The inserts were isolated and used as robes for Northern blotting analysis (5,25). […] Radiolabeled probes were generated by random oligonucleotide priming (25). Prehybridization, hybridization, posthybridization washes, and autoradiography were performed as described (5,18,25).

[3] = tested on: mda-6 (WAF1/CIP1/SDI1); type: cell-based, human; details: HL-525, RA 1 μM; for time of treatment at which mda-6 expression is induced: TPA 3 nM, Vit D3 400 nM, 1 to 12 h test period
Protocol: HL-60 cells were originally provided by Dr. R. C. Gallo (National Cancer Institute, Bethesda, Md.) (Collins et al., 1978; Huberman & Callaham, 1979). HL-60 cells designated HL-525 were derived by cloning HL-60 cells after subculturing 102 times in the presence of increasing concentrations (up to 3 μM) of TPA at 5- to 8-day intervals (Homma et al., 1986; Mitchell et al., 1986). […] Prior to the experiments described in this study, the HL-525 cells were subcultured more than 20 times in the absence of TPA. Cells were grown in 100-mm tissue culture dishes in RPMI 1640 medium supplemented with 20% fetal bovine serum, penicillin (100 units/ml) and streptomycin (100 μg/ml) (Grand Island Biological Co., NY) at 37° C. in an atmosphere of 5% CO2 in air in a humidified incubator. The 1,25-(OH)2D3(Vit D3) and TPA were dissolved in a final concentration of 0.01% DMSO, and all-trans retinoic acid (RA) was dissolved in 0.1% DMSO in culture medium. […] Control cultures were treated with DMSO at a final concentration of 0.1% in culture medium. For experiments designed to test the effect of DMSO on HL-60 and HL-525 cells, DMSO was added to tissue culture medium at a final concentration of 1%. Stock solutions of CHX (10 mg/ml) were prepared in culture medium. CHX was added at a final concentration of 10 μg/ml. To examine a requirement for protein synthesis on mda-6 gene expression, HL-60 or HL-525 cells were seeded into 150 mm Petri dishes (5×10^5 cells/ml) in 30 ml of medium. CHX was added to a final concentration of 10 μg/ml 15 min prior to the addition of TPA to 3 nM. Cells were harvested at various times after addition of TPA for subsequent RNA isolation and analysis.
RNA was purified by centrifugation through a CsC1 cushion as described by Chirgwin et al. (1979). Ten μg of RNA was denatured with glyoxal/DMSO, electrophoresed on 1.0% agarose gels, transferred to nylon membranes, hybridized to a ^32P-labeled mda-6 probe (Jiang and Fisher, 1993) and then after stripping the membrane hybridized to a ^32P-labeled rat GAPDH probe (Fort et al., 1985), as described previously (Reddy et at., 1991; Su et al., 1991; Jiang et al., 1992). Following hybridization, the filters were washed and exposed for autoradiography (Reddy et al., 1991; Su et al., 1991; Jiang et al., 1992). mda-6 and GAPDH gene expression were also determined by reverse transcription-polymerase chain reaction (RT-PCR) as described (Adollahi et al. 1991; Lin et al., 1994). Total cytoplasmic RNA was treated with 0.5 units DNase (Boehringer-Mannheim Biochemicals)/μg RNA in 15% glycerol, 10 mM Tris, pH 7.5, 2.5 mM MgCl2, 0.1 mM EDTA, 80 mM KC1, 1 mM CaCl2 and 1 unit/ml RNasin (Promega) at 30° C. for 10 min. RNA was extracted with phenol-chloroform, precipitated with sodium acetate/ethanol and RNA pellets were resuspended in diethylpyrocarbonate-treated H2O. One μg of total RNA was reverse transcribed with 200 units of murine leukemia virus reverse transcriptase (Bethesda Research Laboratories) in 20 μl containing 1 mM deoxyribonucleotide triphosphates, 4 mM MgCl2, 10 mM Tris, pH 8.3, 50 mM KC1, 0.001% gelatin and 0.2 μg oligo-dT primer. Samples were diluted to 100 μl with buffer containing 0.2 mM deoxyribonucleotide triphosphates, 2 mM MgCl2, 10 mM Tris, pH 8.3, 50 mM KC1 and 0.001% gelatin. […]

[4] = 96 hours, doses of FIG. 15 legend

SMILES: C=C(C)[C@@]12O[C@@]3(c4ccccc4)O[C@@H]1[C@@H]1[C@@H]4O[C@]4(CO)[C@@H](O)[C@]4(O)C(=O)C(C)=C[C@H]4[C@@]1(O3)[C@H](C)[C@H]2OC(=O)/C=C/C=C/c1ccccc1 [MEZ, mezerein]
- Growth Suppression (reversible) ([1]; Table 1): 1+ (1+ = ~30% reduction in growth in comparison with untreated control cultures)
- Growth Suppression (reversible) ([1]; Table 2): 1+ (1+ = ~30% reduction in growth in comparison with untreated control cultures)
- mda-8 expression ([2]; 24 hours, doses of FIG. 19, phenyl butyrate 24 hours, 4 days or 7 days): No change in expression
- mda-8 expression [2, 4]: No change in expression

SMILES: CC1=C(/C=C/C(C)=C/C=C/C(C)=C/C(=O)O)C(C)(C)CCC1 [RA, trans-retinoic acid]
- inhibition of H0-1 growth ([1]; H0-1, 96 hours, FIG. 1 concentrations): no inhibition of growth
- Growth Suppression (reversible) ([1]; Table 1): − (− = no significant change in growth (<10% reduction in growth in comparison with untreated control cultures))
- Growth Suppression (reversible) ([1]; Table 2): − (− = no significant change in growth (<10% reduction in growth in comparison with untreated control cultures))
- mda-8 expression [2, 4]: No change in expression
- time of treatment at which mda-6 expression is detected ([3]; extended treatment 12 h to 6 d): 2 days
- time of treatment at which mda-6 expression is induced [3]: > 12 h

SMILES: CCCCCCCCCCCCCC(=O)O[C@@H]1[C@@H](C)[C@@]2(O)[C@@H](C=C(CO)C[C@]3(O)C(=O)C(C)=C[C@@H]23)[C@@H]2C(C)(C)[C@]12OC(C)=O [TPA, 12-O-tetradecanoyl-phorbol-13-acetate]
- time of treatment at which mda-6 expression is induced [3]: 12 h
